Measurements published in patent publication US4769378A, “Indenopyrimidine aromatase inhibitors” (Eli Lilly and Company, priority 1986, dated 1988).
Read-outs that look alike come from different tables or passages of the source.

Assays:
[1] = molecular target: T1, aromatase (Rattus norvegicus, UniProt P22443); assay: Aromatase inhibition in the rat ovarian microsome assay; format: biochemical; settings: substrate (androstenedione) concentration 0.1 μM; rat ovarian microsomes; read-out: EC50 (concentration of compound required to achieve 50% inhibition of aromatase activity)
T1 construct: ovarian microsomes are obtained from rats treated with pregnant mares serum gonadotropin; from tissue; host or cells: rat ovary microsomes (rats treated with pregnant mares serum gonadotropin)
T1 sequence (P22443 1-508): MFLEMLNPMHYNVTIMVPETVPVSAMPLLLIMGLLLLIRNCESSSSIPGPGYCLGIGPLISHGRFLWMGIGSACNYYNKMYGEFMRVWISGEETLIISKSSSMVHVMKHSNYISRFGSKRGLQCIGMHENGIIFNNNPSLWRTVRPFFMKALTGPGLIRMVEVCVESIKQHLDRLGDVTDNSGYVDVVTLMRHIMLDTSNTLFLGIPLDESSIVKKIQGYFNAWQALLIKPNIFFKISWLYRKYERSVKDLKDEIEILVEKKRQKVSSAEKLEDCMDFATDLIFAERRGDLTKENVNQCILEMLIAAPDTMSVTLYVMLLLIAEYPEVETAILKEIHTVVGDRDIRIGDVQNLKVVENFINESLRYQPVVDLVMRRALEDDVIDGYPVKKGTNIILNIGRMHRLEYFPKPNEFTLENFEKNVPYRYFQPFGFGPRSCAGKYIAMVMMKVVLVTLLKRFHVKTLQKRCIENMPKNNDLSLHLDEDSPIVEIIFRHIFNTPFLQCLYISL
Protocol: In this test system, ovarian microsomes are obtained from rats treated with pregnant mares serum gonadotropin. Test compounds are added to reaction vials containing 0.1 μM 4-androstene-3,17-dione, 100,000 dpm 1,2[^3 H]-androstenedione, the microsomes and a NADPH generating system. The concentrations of the inhibitors tested ranged between 5 and 10000 nM. […] Potency is determined based on the concentration of inhibitor in nM required to produce a 50% inhibition of enzyme activity (EC50) when the concentration of substrate (androstenedione) is 0.1 μM.

[2] = system: Estrogen synthesis (aromatization); assay: Estrogen Synthesis Inhibition in Rats; format: in vivo, immature female Wistar rats; settings: Rattus norvegicus, po, 168 h, gavage; for response vs control in vivo at 3 mg/kg: 3 mg/kg × 7 days; for response vs control in vivo at 10 mg/kg: 10 mg/kg × 7 days; for response vs control in vivo at 30 mg/kg: 30 mg/kg × 7 days;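 for Uterine Wt. %: 100% equals the stimulated control's weight gain over the unstimulated control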
Protocol: By virtue of their ability to inhibit the enzyme aromatase, the compounds of this invention are able to inhibit the synthesis of estrogens in mammals, thereby making the compounds useful in the treatment of estrogen-dependent diseases, such as breast cancer.
Immature female Wistar rats (45-55 grams) were divided into control and test groups of 2-8 animals each. Test compounds were administered for seven days daily by gavage in corn oil. Control animals received corn oil without the test compound. Beginning on the fourth day of the test, all animals treated with the test compound and one half of the control animals were given a subcutaneous injection of 1.0 mg of testosterone propionate in corn oil. The remaining control animals received only an equivalent volume of corn oil. On the seventh day of the test, rats treated with testosterone propionate were injected subcutaneously with 100 μCi of [^3 H]-testosterone in 50 μl of saline-ethanol (3:1).
After two hours, the animals were killed by decapitation. Uteri were isolated, trimmed of extraneous connective tissue, and weighed. […] In the control animals treated with testosterone propionate, estrogens produced by aromatization stimulated the uterus resulting in an increase in weight.
Ovaries from rats treated with [^3 H]-testosterone were excised, cleaned of extraneous tissue, and homogenized in 2.5 ml of a 1.0 mM potassium phosphate buffer containing 3.0 mM MgCl2.6H2 O, 320 mM sucrose, and 0.25% Triton X-100 (polyethylene glycol p-isooctyl phenyl ether, Rohm and Haas) at pH 6.5. The ovarian steroids were extracted with 1.5 ml of 9:1 toluene/ethanol to which had been added 25 to 100 mcg each of unlabelled estradiol, estriol, and estrone, and approximately 1000 dpm of [^14 C]-estradiol. The samples were vortexed, centrifuged at 500×g for 10 minutes, and the organic phase was transferred to a conical vial. Two additional extractions were performed on the residue in the same way. The pooled organic extracts were evaporated for subsequent thin-layer chromatography.
Ovarian proteins were precipitated by the addition of 5.0 ml of ethanol to the remaining aqueous phase. After an overnight incubation at 4° C., the samples were centrifuged at 1500×g for 10 minutes. The supernatant was discarded and the pellet was dissolved in 0.3 N potassium hydroxide. Protein was determined according to the method of Bradford, Analytical Biochemistry, 72, 248 (1976).
The organic residue from each above extraction was redissolved in 9:1 dichloromethane/methanol. The solution of each sample was applied to separate silica gel thin layer chromatography plates which contained a fluorescent indicator. The plates were developed the first dimension with 160:38:1.5:0.5 dichloromethane/ethyl acetate/methanol/acetic acid to within 3 cm of the top of the plate. After air-drying, the plate was developed in the second dimension with 180:19:1 dichloromethane/methanol/ammonium hydroxide. The plate was air-dried and viewed under 254 nm UV light.
The visible spots were marked and the plates were sprayed with primulin (0.001% in 4:1 acetone/water) according to the method of Wright, J. Chromatography, 59, 220 (1971) which allowed for the identification of additional steroids under 365 nm UV light. The spots were scraped from the plate using a glass wool plugged Pasteur pipet attached to a vacuum line. The steroids were eluted directly into scintillation vials by the addition of 0.2 ml of dichloromethane followed by two washes each of 2.0 ml of methanol. The organic solvent was evaporated and 10.0 ml of scintillation fluid (Beckman Ready Solv-NA) was added to the vials. Samples were analyzed by liquid scintillation spectrometry and the corrections were made based on the recoveries of the [^14 C]-steroid.
In Table 2, values for uterine weight are expressed as the respective weights of drug treated (DT), unstimulated corn oil control (UC), and stimulated corn oil control (SC) according to the calculation %=100 (DT-UC)/(SC-UC). […]

[3] = system: DMBA-induced mammary tumors; assay: DMBA-induced Mammary Tumor Inhibition; format: in vivo, female Sprague-Dawley rats
Protocol: Mammary tumors were produced in female Sprague-Dawley rats which were 50-60 days old by the gavage administration of 20 mg of 7,12-dimethylbenz[a]anthracene (DMBA). About six weeks after DMBA administration, the mammary glands were palpated at weekly intervals for the appearance of tumors. Whenever one or more tumors appeared and were measurable in an animal, that animal was selected for experimentation. […] Each control and test group contained 5-8 animals. Each test compound was administered in corn oil once daily by gavage. Every experiment included a group of control rats having tumors and were given corn oil vehicle by gavage. […] The area of each tumor was calculated by multiplying the shortest and longest diameters of the tumor. The treatment and measurement of animals continued for 4-6 weeks at which time the final areas of the tumors were determined. For each compound (and control) at each dose level, the change in the mean tumor area was determined. The mean change was analyzed for its significance using Dunnett's t-test.

[4] = 100 (DT-UC)/(SC-UC), read-out: Uterine Wt. %
[5] = ovaries, percent of testosterone-treated controls, read-out: % steroid concentration, estradiol
[6] = ovaries, percent of testosterone-treated controls, read-out: % steroid concentration, estrone

Row | Structure (SMILES) | EC50 [1] [nM] | response vs control in vivo at 3 mg/kg [2, 4] [%] | response vs control in vivo at 3 mg/kg [2, 5] [%] | response vs control in vivo at 3 mg/kg [2, 6] [%] | response vs control in vivo at 10 mg/kg [2, 4] [%] | response vs control in vivo at 10 mg/kg [2, 5] [%] | response vs control in vivo at 10 mg/kg [2, 6] [%] | response vs control in vivo at 30 mg/kg [2, 4] [%] | response vs control in vivo at 30 mg/kg [2, 5] [%] | response vs control in vivo at 30 mg/kg [2, 6] [%] | Final Tumor Area ± S.E. ([3]; Test I, 3 mg/kg daily by gavage, 4 weeks, control 741 ± 193) [mm^2] | Final Tumor Area ± S.E. ([3]; Test I, 10 mg/kg daily by gavage, 4 weeks, control 741 ± 193) [mm^2] | Final Tumor Area ± S.E. ([3]; Test I, 30 mg/kg daily by gavage, 4 weeks, control 741 ± 193) [mm^2] | Final Tumor Area ± S.E. ([3]; Test II, 10 mg/kg daily by gavage, 4 weeks, control 698 ± 78) [mm^2] | Final Tumor Area ± S.E. ([3]; Test II, 30 mg/kg daily by gavage, 4 weeks, control 698 ± 78) [mm^2] | Final Tumor Area ± S.E. ([3]; Test II, 50 mg/kg daily by gavage, 4 weeks, control 698 ± 78) [mm^2] | Final Tumor Area ± S.E. ([3]; Test III, 10 mg/kg daily by gavage, 6 weeks, control 2053 ± 778) [mm^2] | Final Tumor Area ± S.E. ([3]; Test III, 30 mg/kg daily by gavage, 6 weeks, control 2053 ± 778) [mm^2]
1 | Clc1ccc(C2c3ccc(Cl)cc3-c3ncncc32)cc1 (stereo not shown) [Example 1, 8-chloro-5-(4-chlorophenyl)-5H-indeno[1,2-d]pyrimidine] | 24 | 50.2 | 31.5 | 31.5 | 37.3 | 17.2 | 31.4 | 20.6 | 23.6 | 118 | 162 ± 93 | 74 ± 45 | 6 ± 6 | – | – | – | – | –
2 | Clc1ccc(C2c3ccccc3-c3ncncc32)cc1 (stereo not shown) [Example 2, 5-(4-chlorophenyl)-5H-indeno[1,2-d]pyrimidine] | 21 | 49.1 | 40.5 | 106 | – | – | – | 33.3 | 19.4 | 83.2 | – | – | – | 287 ± 94 | 814 ± 223 | 552 ± 177 | – | –
3 | Fc1ccc(C2c3ccc(C(F)(F)F)cc3-c3ncncc32)cc1 (stereo not shown) [Example 4, 5-(4-fluorophenyl)-8-(trifluoromethyl)-5H-indeno[1,2-d]pyrimidine] | 27 | -14.3 | – | – | – | – | – | -35.5 | – | – | – | – | – | – | – | – | – | –
4 | Fc1ccc2c(c1)-c1ncncc1C2c1ccc(C(F)(F)F)cc1 (stereo not shown) [Example 5, 8-fluoro-5-[4-(trifluoromethyl)phenyl]-5H-indeno[1,2-d]pyrimidine] | 50 | 47.3 | – | – | – | – | – | 22.8 | – | – | – | – | – | – | – | – | – | –
5 | Fc1ccc(C2c3ccc(F)cc3-c3ncncc32)cc1 (stereo not shown) [Example 6, 8-fluoro-5-(4-fluorophenyl)-5H-indeno[1,2-d]pyrimidine] | 24 | 0.7 | 10.2 | 70.3 | – | – | – | 6.9 | 2.9 | 57.1 | – | – | – | – | – | – | 109 ± 62 | 393 ± 254

Further lines, with some results ahead:

Row | EC50 [1] [nM] | Structure (SMILES) | response vs control in vivo at 3 mg/kg [2, 4] [%] | response vs control in vivo at 3 mg/kg [2, 5] [%] | response vs control in vivo at 3 mg/kg [2, 6] [%] | response vs control in vivo at 10 mg/kg [2, 4] [%] | response vs control in vivo at 10 mg/kg [2, 5] [%] | response vs control in vivo at 10 mg/kg [2, 6] [%] | response vs control in vivo at 30 mg/kg [2, 4] [%] | response vs control in vivo at 30 mg/kg [2, 5] [%] | response vs control in vivo at 30 mg/kg [2, 6] [%] | Final Tumor Area ± S.E. ([3]; Test I, 3 mg/kg daily by gavage, 4 weeks, control 741 ± 193) [mm^2] | Final Tumor Area ± S.E. ([3]; Test I, 10 mg/kg daily by gavage, 4 weeks, control 741 ± 193) [mm^2] | Final Tumor Area ± S.E. ([3]; Test I, 30 mg/kg daily by gavage, 4 weeks, control 741 ± 193) [mm^2] | Final Tumor Area ± S.E. ([3]; Test II, 10 mg/kg daily by gavage, 4 weeks, control 698 ± 78) [mm^2] | Final Tumor Area ± S.E. ([3]; Test II, 30 mg/kg daily by gavage, 4 weeks, control 698 ± 78) [mm^2] | Final Tumor Area ± S.E. ([3]; Test II, 50 mg/kg daily by gavage, 4 weeks, control 698 ± 78) [mm^2] | Final Tumor Area ± S.E. ([3]; Test III, 10 mg/kg daily by gavage, 6 weeks, control 2053 ± 778) [mm^2] | Final Tumor Area ± S.E. ([3]; Test III, 30 mg/kg daily by gavage, 6 weeks, control 2053 ± 778) [mm^2]
6 | 26 | OC1(c2ccc(Cl)cc2)c2ccc(Cl)cc2-c2ncncc21 (stereo not shown) [Example 18, 8-chloro-5-(4-chlorophenyl)-5H-indeno[1,2-d]pyrimidin-5-ol] | 30.4 | 16.8 | 89 | – | – | – | -7.7 | 7.5 | 77 | – | – | – | – | – | – | – | –
7 | 255 | OC1(c2ccc(Cl)cc2Cl)c2ccccc2-c2ncncc21 (stereo not shown) [Example 19] | 69.6 | 78.3 | 116 | – | – | – | 42.8 | 60 | 75.4 | – | – | – | – | – | – | – | –
8 | < 50 | OC1(c2ccc(F)cc2)c2ccccc2-c2ncncc21 (stereo not shown) [Example 21, 5-(4-fluorophenyl)-5H-indeno[1,2-d]pyrimidin-5-ol] | 46.4 | 14.5 | 83.8 | – | – | – | 17.9 | 8.8 | 71.3 | – | – | – | – | – | – | – | –
9 | 50 | OC1(c2ccccc2Cl)c2ccc(Cl)cc2-c2ncncc21 (stereo not shown) [Example 22, 8-chloro-5-(2-chlorophenyl)-5H-indeno[1,2-d]pyrimidin-5-ol] | 70 | 79.4 | 73.4 | – | – | – | 57.4 | 40.8 | 90.1 | – | – | – | – | – | – | – | –
10 | 69 | CC(=O)NC1(c2ccc(F)cc2)c2ccccc2-c2ncncc21 (stereo not shown) [Example 24, N-[5-(4-fluorophenyl)-5H-indeno[1,2-d]pyrimidin-5-yl]acetamide] | 32.3 | 43.2 | 71.9 | – | – | – | 23.2 | 19.2 | 59.9 | – | – | – | – | – | – | – | –
